Assay results taken from paper PMC6923384, “Insights into the κ/ι-carrageenan metabolism pathway of some marine Pseudoalteromonas species” (Communications Biology, 2019).

What was measured:
GH167 = target: T1, GH167 (Pseudoalteromonas fuliginea, UniProt A0ABQ6RII1); assay: thin layer chromatography of products; type: biochemical; details: hydrolysis of β-1,4-linkage to κ-NC2 and likely β-NC2
T1 construct: gene EU509_08810; residues 21-808, signal peptide removed, pET28a His-tag, E. coli BL21(DE3) Star

BovGH167 = target: T2, BovGH167 (Bacteroides ovatus, UniProt A0ABF7PI57); assay: thin layer chromatography of products; type: biochemical; details: hydrolysis of β-1,4-linkage to κ-NC2 and likely β-NC2 activity as GH167
T2 construct: gene HMPREF1069_02044; residues 26-775, synthetic codon-optimised gene, pET28a His-tag, E. coli BL21(DE3) Star
T2 sequence (A0ABF7PI57 26-775): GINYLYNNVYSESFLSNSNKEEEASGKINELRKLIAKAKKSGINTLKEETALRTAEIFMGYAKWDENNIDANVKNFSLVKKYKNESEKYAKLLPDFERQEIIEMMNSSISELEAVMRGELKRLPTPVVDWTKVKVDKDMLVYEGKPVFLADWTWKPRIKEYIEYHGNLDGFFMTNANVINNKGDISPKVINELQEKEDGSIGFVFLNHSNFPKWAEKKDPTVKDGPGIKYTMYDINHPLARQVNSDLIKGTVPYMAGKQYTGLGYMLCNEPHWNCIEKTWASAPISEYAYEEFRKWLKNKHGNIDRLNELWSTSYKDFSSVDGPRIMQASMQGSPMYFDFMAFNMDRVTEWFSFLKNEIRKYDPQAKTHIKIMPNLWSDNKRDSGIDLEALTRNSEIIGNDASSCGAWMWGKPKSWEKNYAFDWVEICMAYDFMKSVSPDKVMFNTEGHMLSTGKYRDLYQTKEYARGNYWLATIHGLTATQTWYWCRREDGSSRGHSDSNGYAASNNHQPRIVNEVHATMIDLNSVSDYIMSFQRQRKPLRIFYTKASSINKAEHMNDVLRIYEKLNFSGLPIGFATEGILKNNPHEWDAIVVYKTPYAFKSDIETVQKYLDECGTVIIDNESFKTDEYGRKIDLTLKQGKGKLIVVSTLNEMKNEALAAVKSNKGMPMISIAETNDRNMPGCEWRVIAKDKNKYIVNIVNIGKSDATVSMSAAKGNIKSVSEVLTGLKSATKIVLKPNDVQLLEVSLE

S1_19A = target: T3, S1_19A (Pseudoalteromonas fuliginea, UniProt A0ABQ6RIU8); assay: product analysis, details in supplement; type: biochemical; details: removes 4-sulfate from G4S adjacent to the non-reducing end
T3 construct: gene EU509_08825; pET28a His-tag, E. coli BL21(DE3) Star with formylglycine generating enzyme; cloning described previously

S1_NC = target: T4, S1_NC (Pseudoalteromonas fuliginea, UniProt A0ABQ6RIJ3, C84S); assay: crystal structure of the complex; type: binding; details: crystal soaking; only the non-reducing end disaccharide (ι-NC2) modelled; active site
T4 construct: gene EU509_08820; residues 34-507, signal peptide removed, pET28a N-terminal His-tag cut by thrombin for crystals, E. coli BL21(DE3) Star

S1_19B = target: T5, S1_19B (Pseudoalteromonas fuliginea, UniProt A0ABQ6RIL2, C77S); assay: crystal structure of the complex; type: binding; details: co-crystallization; inactive (non-productive) complex; C77S inferred from methods (mutants in complex with ligands)
T5 construct: gene EU509_08890; residues 28-473, signal peptide removed, pET28a N-terminal His-tag (cut by thrombin for crystals), E. coli BL21(DE3) Star with formylglycine generating enzyme; dimer

[1] = target: DauA, 3,6-anhydro-D-galactose dehydrogenase from Pseudoalteromonas fuliginea PS47 (Pseudoalteromonas fuliginea PS47); assay: crystal structure; hanging drop vapor-diffusion at 18 °C; N-terminal His-Tag cleaved with thrombin before crystallization
[2] = target: S1_19B, exo-G4S κ-carrageenan sulfatase from Pseudoalteromonas fuliginea PS47 (Pseudoalteromonas fuliginea PS47); assay: as above
[3] = target: S1_19B, exo-G4S κ-carrageenan sulfatase from Pseudoalteromonas fuliginea PS47 (Pseudoalteromonas fuliginea PS47); assay: not stated; in solution; method told only in Supplementary Notes (section 3) and Supplementary Fig. 7b-d

T3 sequence (A0ABQ6RIU8 entry or part of it): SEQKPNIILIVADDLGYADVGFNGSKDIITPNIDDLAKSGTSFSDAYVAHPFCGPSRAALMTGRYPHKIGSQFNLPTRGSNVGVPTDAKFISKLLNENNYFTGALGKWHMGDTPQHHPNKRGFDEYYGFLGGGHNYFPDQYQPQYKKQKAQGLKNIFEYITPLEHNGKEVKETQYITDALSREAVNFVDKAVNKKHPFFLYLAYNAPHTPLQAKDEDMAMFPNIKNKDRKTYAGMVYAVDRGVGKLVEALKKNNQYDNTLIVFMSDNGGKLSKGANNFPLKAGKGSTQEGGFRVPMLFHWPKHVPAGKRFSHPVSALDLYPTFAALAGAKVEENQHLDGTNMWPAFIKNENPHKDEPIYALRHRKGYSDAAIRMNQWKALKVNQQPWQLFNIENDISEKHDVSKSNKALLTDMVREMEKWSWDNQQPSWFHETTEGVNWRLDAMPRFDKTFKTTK
T1 sequence (A0ABQ6RII1 entry or part of it): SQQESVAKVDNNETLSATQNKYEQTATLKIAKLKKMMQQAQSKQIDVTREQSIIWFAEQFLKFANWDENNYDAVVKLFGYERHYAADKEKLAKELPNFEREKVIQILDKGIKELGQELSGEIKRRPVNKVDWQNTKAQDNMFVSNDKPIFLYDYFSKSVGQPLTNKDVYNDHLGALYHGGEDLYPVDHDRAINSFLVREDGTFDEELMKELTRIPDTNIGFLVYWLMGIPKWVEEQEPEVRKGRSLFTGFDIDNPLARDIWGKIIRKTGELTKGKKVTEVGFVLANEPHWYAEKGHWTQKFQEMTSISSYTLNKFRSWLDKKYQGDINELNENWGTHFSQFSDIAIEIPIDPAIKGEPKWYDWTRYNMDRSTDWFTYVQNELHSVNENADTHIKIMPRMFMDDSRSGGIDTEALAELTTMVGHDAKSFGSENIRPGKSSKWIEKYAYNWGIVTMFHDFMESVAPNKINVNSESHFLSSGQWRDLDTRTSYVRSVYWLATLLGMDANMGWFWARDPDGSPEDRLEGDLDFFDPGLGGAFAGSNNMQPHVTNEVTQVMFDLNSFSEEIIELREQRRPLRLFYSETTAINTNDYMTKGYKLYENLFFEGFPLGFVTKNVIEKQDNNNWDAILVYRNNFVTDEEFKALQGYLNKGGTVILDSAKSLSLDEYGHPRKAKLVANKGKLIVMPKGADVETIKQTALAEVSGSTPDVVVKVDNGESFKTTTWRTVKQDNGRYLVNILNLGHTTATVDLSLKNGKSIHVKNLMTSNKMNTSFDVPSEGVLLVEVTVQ
T5 sequence (A0ABQ6RIL2 entry or part of it C77S): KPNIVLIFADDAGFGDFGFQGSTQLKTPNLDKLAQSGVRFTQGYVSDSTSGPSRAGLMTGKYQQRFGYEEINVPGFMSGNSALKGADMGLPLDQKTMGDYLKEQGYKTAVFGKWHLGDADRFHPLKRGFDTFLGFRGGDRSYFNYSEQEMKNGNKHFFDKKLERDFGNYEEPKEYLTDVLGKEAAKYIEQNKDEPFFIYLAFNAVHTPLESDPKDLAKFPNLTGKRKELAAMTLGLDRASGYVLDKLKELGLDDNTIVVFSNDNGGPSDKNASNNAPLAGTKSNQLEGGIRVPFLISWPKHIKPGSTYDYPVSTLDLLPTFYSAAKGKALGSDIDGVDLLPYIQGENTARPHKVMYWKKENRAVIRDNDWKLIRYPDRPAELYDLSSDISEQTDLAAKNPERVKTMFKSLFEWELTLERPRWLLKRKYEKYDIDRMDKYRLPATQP
T4 sequence (A0ABQ6RIJ3 entry or part of it C84S): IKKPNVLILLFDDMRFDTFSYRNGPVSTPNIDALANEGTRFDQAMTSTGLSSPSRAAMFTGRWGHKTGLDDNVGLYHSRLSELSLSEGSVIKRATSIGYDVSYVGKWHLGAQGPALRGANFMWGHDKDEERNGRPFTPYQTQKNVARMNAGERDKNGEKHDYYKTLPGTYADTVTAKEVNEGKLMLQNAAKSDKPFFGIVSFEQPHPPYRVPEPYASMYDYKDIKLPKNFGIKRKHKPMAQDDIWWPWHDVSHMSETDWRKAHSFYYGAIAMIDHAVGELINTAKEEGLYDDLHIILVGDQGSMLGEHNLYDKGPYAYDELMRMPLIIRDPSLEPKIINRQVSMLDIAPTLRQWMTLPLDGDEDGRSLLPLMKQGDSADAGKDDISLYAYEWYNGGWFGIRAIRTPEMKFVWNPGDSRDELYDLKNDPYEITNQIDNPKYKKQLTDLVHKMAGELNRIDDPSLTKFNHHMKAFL

Molecule: O=S(=O)(O)O[C@@H]1[C@H](O[C@H]2O[C@@H]3CO[C@H]([C@H]2O)[C@H]3O[C@@H]2O[C@H](CO)[C@H](O)[C@H](O[C@H]3O[C@@H]4CO[C@@H]([C@H]4O)[C@H]3O)[C@H]2O)[C@@H](O)C(O)O[C@@H]1CO (stereo partly drawn) [β/κ-NC4, β/κ-neocarratetraose]
- thin layer chromatography of products (GH167): Using TLC we found activity on hybrid β/κ-neocarratetraose (β/κ-NC4)
- thin layer chromatography of products (BovGH167): has the same enzymatic activity as GH167 (Fig. 5a)

Molecule: O=S(=O)(O)O[C@@H]1[C@H](O[C@H]2O[C@@H]3CO[C@@H]([C@H]3O)[C@H]2OS(=O)(=O)O)[C@@H](O)[C@H](O[C@@H]2[C@@H]3OC[C@H]2O[C@H](O[C@H]2[C@@H](OS(=O)(=O)O)[C@@H](CO)OC(O)[C@@H]2O)[C@@H]3OS(=O)(=O)O)O[C@@H]1CO (some centres unmarked) [ι-NC4, ι-neocarratetraose]
- product analysis, details in supplement (S1_19A): can remove the 4-sulfate from the G4S residue that is adjacent to the non-reducing end
- crystal structure of the complex (S1_NC): structural analysis of the S1_NC C84S mutant in complex with ι-NC4
- crystal structure of the complex (S1_19B): the structure of this enzyme in complex with ι-NC4 revealed the ability of the enzyme to bind

Molecule: DauA, 3,6-anhydro-D-galactose dehydrogenase from Pseudoalteromonas fuliginea PS47 (enzyme)
- stoichiometry N [1]: 2

Molecule: S1_19B, exo-G4S κ-carrageenan sulfatase from Pseudoalteromonas fuliginea PS47 (enzyme)
- stoichiometry N [2]: 2
- stoichiometry N [3]: 2
